Patent publication US6737383B1, “Herbicidal oxadiazolidines” (priority 1999, dated 2004)

Experiments:
velvetleaf = assay: Test B pre/postemergence velvetleaf; type: in vivo, Abutilon theophrasti
Outline: (§1)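 Test chemicals in a non-phytotoxic solvent mixture with surfactant were sprayed preemergence onto planted seeds and postemergence onto plants 2 to 18 cm tall (1- to 4-leaf stage). After twelve to sixteen days in a greenhouse, injury was visually rated against untreated controls from 0 (no effect) to 10 (complete control).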

bedstraw = assay: Test B pre/postemergence bedstraw; type: in vivo, Galium aparine
Outline: as §1

pigweed = assay: Test B pre/postemergence pigweed; type: in vivo, Amaranthus retroflexus
Outline: as §1

wild oat = assay: Test B pre/postemergence wild oat; type: in vivo, Avena fatua
Outline: as §1

crabgrass = assay: Test B pre/postemergence crabgrass; type: in vivo, Digitaria sanguinalis
Outline: as §1

corn = assay: Test B pre/postemergence corn; type: in vivo, Zea mays
Outline: as §1

morningglory = assay: Test B pre/postemergence morningglory; type: in vivo, Ipomoea hederacea
Outline: as §1

smallflower flatsedge = assay: Test B flood test smallflower flatsedge; type: in vivo, Cyperus difformis
Outline: (§2)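 Flood test on plants grown to the 2-leaf stage; treated plants kept in greenhouse twelve to sixteen days, then visually rated against controls on a 0 (no effect) to 10 (complete control) scale.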

surinam grass = assay: Test B pre/postemergence surinam grass; type: in vivo, Brachiaria decumbens
Outline: as §1

soybean = assay: Test B pre/postemergence soybean; type: in vivo, Glycine max
Outline: as §1

giant foxtail = assay: Test B pre/postemergence giant foxtail; type: in vivo, Setaria faberii
Outline: as §1

wheat = assay: Test B pre/postemergence wheat; type: in vivo, Triticum aestivum
Outline: as §1

rice = assay: Test B flood test rice; type: in vivo, Oryza sativa
Outline: as §2

cocklebur = assay: Test B pre/postemergence cocklebur; type: in vivo, Xanthium strumarium
Outline: as §1

bamyardgrass = assay: Test B flood test barnyardgrass; type: in vivo, Echinochloa crus-galli
Outline: as §2

blackgrass = assay: Test B pre/postemergence blackgrass; type: in vivo, Alopecurus myosuroides
Outline: as §1

[1] = Postemergence, Rate 125 g/ha, scale 0 to 10, 0 is no effect, 10 is complete control
[2] = Preemergence, Rate 62 g/ha, scale of 0 to 10 where 0 is no effect and 10 is complete control
[3] = Preemergence, Rate 250 g/ha, scale of 0 to 10 where 0 is no effect and 10 is complete control
[4] = Preemergence, Rate 500 g/ha, scale of 0 to 10 where 0 is no effect and 10 is complete control
[5] = Rate 62 g/ha, Postemergence, scale 0 to 10 (0 no effect, 10 complete control)
[6] = Rate 500 g/ha, Postemergence, scale 0 to 10, 0 no effect, 10 complete control
[7] = Rate 62 g/ha, headed Pre-emergence (flood test species), scale 0 to 10 (0 no effect, 10 complete control)
[8] = Rate 125 g/ha, Pre-emergence, flood test species, scale 0 to 10 where 0 is no effect and 10 is complete control
[9] = Rate 250 g/ha, Pre-emergence, flood-test species, scale 0 to 10, 0 is no effect, 10 is complete control
[10] = Rate 500 g/ha, Pre-emergence, flood test species, scale 0 to 10 (0 no effect, 10 complete control)
[11] = Rate 250 g/ha, Postemergence, scale of 0 to 10 where 0 is no effect and 10 is complete control

Cc1ccc(N(C(=O)n2oc(=O)n(-c3ccc4ccccc4c3)c2=O)C(C)C)cc1 [Compound 334] was tested. Which “Plant response rating, Velvetleaf” value (velvetleaf; [1]) did it give?
The value was 0.

What about the “Velvetleaf plant response rating” value (velvetleaf; [2]) of the same compound?
Its value is 0.

And the “Velvetleaf plant response rating (0 to 10 scale)” value (velvetleaf; Preemergence, Rate 125 g/ha)?
The value was 0.

And the “Velvetleaf plant response rating” value (velvetleaf; [3])?
The value was 0.

And the “Velvetleaf plant response rating” value (velvetleaf; [4])?
The value was 0.

What about the “Velvetleaf plant response rating” value (velvetleaf; [5]) of the same compound?
Its value is 0.

What about the “Plant response rating, Velvetleaf” value (velvetleaf; [6]) of the same compound?
Its value is 0.

And the “Plant response rating, Bedstraw” value (bedstraw; [1])?
Its value is 0.

What about the “Bedstraw plant response rating” value (bedstraw; [2]) of the same compound?
Its value is 0.

And the “Bedstraw plant response rating (0 to 10 scale)” value (bedstraw; Preemergence, Rate 125 g/ha)?
Its value is 0.

What about the “Bedstraw plant response rating” value (bedstraw; [3]) of the same compound?
Its value is 0.

What about the “Bedstraw plant response rating” value (bedstraw; [4]) of the same compound?
The value was 0.

And the “Bedstraw plant response rating” value (bedstraw; [5])?
The value was 0.

And the “Plant response rating, Bedstraw” value (bedstraw; [6])?
Its value is 0.

What about the “Plant response rating, Redroot pigweed” value (pigweed; [1]) of the same compound?
The value was 0.

What about the “Redroot pigweed plant response rating” value (pigweed; [2]) of the same compound?
Its value is 0.

What about the “Redroot pigweed plant response rating (0 to 10 scale)” value (pigweed; Preemergence, Rate 125 g/ha) of the same compound?
Its value is 0.

What about the “Redroot pigweed plant response rating” value (pigweed; [3]) of the same compound?
The value was 0.

And the “Redroot pigweed plant response rating” value (pigweed; [4])?
The value was 0.

And the “Redroot pigweed plant response rating” value (pigweed; [5])?
The value was 0.

What about the “Plant response rating, Redroot pigweed” value (pigweed; [6]) of the same compound?
The value was 0.

And the “Plant response rating, Wild oats” value (wild oat; [1])?
Its value is 0.

What about the “Wild oats plant response rating” value (wild oat; [2]) of the same compound?
Its value is 0.

And the “Wild oats plant response rating (0 to 10 scale)” value (wild oat; Preemergence, Rate 125 g/ha)?
The value was 0.

What about the “Wild oats plant response rating” value (wild oat; [3]) of the same compound?
Its value is 0.

And the “Wild oats plant response rating” value (wild oat; [4])?
The value was 0.

And the “Wild oats plant response rating” value (wild oat; [5])?
The value was 0.

And the “Plant response rating, Wild oats” value (wild oat; [6])?
The value was 0.

And the “Plant response rating, Crabgrass” value (crabgrass; [1])?
Its value is 0.

What about the “Crabgrass plant response rating” value (crabgrass; [2]) of the same compound?
The value was 0.

What about the “Crabgrass plant response rating (0 to 10 scale)” value (crabgrass; Preemergence, Rate 125 g/ha) of the same compound?
Its value is 0.

What about the “Crabgrass plant response rating” value (crabgrass; [3]) of the same compound?
Its value is 0.

What about the “Crabgrass plant response rating” value (crabgrass; [4]) of the same compound?
Its value is 0.

What about the “Crabgrass plant response rating” value (crabgrass; [5]) of the same compound?
Its value is 0.

And the “Plant response rating, Crabgrass” value (crabgrass; [6])?
The value was 0.

What about the “Plant response rating, Corn” value (corn; [1]) of the same compound?
The value was 0.

What about the “Corn plant response rating” value (corn; [2]) of the same compound?
The value was 0.

What about the “Corn plant response rating (0 to 10 scale)” value (corn; Preemergence, Rate 125 g/ha) of the same compound?
Its value is 0.

And the “Corn plant response rating” value (corn; [3])?
The value was 0.

What about the “Corn plant response rating” value (corn; [4]) of the same compound?
The value was 0.

And the “Corn plant response rating” value (corn; [5])?
The value was 0.

And the “Plant response rating, Corn” value (corn; [6])?
Its value is 0.

What about the “Plant response rating, Morningglory” value (morningglory; [1]) of the same compound?
Its value is 0.

And the “Morningglory plant response rating” value (morningglory; [2])?
The value was 0.

What about the “Morningglory plant response rating (0 to 10 scale)” value (morningglory; Preemergence, Rate 125 g/ha) of the same compound?
The value was 0.

What about the “Morningglory plant response rating” value (morningglory; [3]) of the same compound?
The value was 0.

And the “Morningglory plant response rating” value (morningglory; [4])?
Its value is 0.

And the “Morningglory plant response rating” value (morningglory; [5])?
Its value is 0.

And the “Plant response rating, Morningglory” value (morningglory; [6])?
The value was 0.

What about the “S. Flatsedge plant response rating” value (smallflower flatsedge; [7]) of the same compound?
The value was 0.

What about the “S. Flatsedge plant response rating” value (smallflower flatsedge; [8]) of the same compound?
Its value is 0.

What about the “S. Flatsedge plant response rating” value (smallflower flatsedge; [9]) of the same compound?
The value was 0.

And the “S. Flatsedge plant response rating” value (smallflower flatsedge; [10])?
Its value is 0.

What about the “Plant response rating, B. signalgrass” value (surinam grass; [1]) of the same compound?
Its value is 0.

And the “B. signalgrass plant response rating” value (surinam grass; [2])?
The value was 0.

What about the “B. signalgrass plant response rating (0 to 10 scale, 0 is no effect, 10 is complete control)” value (surinam grass; Preemergence, Rate 125 g/ha) of the same compound?
Its value is 0.

And the “B. signalgrass plant response rating” value (surinam grass; [3])?
The value was 0.

And the “B. signalgrass plant response rating” value (surinam grass; [4])?
The value was 0.

What about the “B. signalgrass plant response rating” value (surinam grass; [5]) of the same compound?
The value was 0.

What about the “Plant response rating, B. signalgrass” value (surinam grass; [11]) of the same compound?
The value was 0.

What about the “Plant response rating, B. signalgrass” value (surinam grass; [6]) of the same compound?
The value was 0.

And the “Plant response rating, Soybean” value (soybean; [1])?
Its value is 1.

What about the “Soybean plant response rating” value (soybean; [2]) of the same compound?
Its value is 0.

And the “Soybean plant response rating (0 to 10 scale)” value (soybean; Preemergence, Rate 125 g/ha)?
Its value is 0.

What about the “Soybean plant response rating” value (soybean; [3]) of the same compound?
The value was 0.

And the “Soybean plant response rating” value (soybean; [4])?
The value was 0.

What about the “Soybean plant response rating” value (soybean; [5]) of the same compound?
Its value is 1.

What about the “Plant response rating, Soybean” value (soybean; [6]) of the same compound?
Its value is 2.

What about the “Plant response rating, Giant foxtail” value (giant foxtail; [1]) of the same compound?
Its value is 0.

And the “Giant foxtail plant response rating” value (giant foxtail; [2])?
Its value is 0.

What about the “Giant foxtail plant response rating (0 to 10 scale)” value (giant foxtail; Preemergence, Rate 125 g/ha) of the same compound?
The value was 0.

What about the “Giant foxtail plant response rating” value (giant foxtail; [3]) of the same compound?
Its value is 0.

And the “Giant foxtail plant response rating” value (giant foxtail; [4])?
Its value is 0.

And the “Giant foxtail plant response rating” value (giant foxtail; [5])?
Its value is 0.

And the “Plant response rating, Giant foxtail” value (giant foxtail; [6])?
Its value is 0.

What about the “Plant response rating, Wheat” value (wheat; [1]) of the same compound?
Its value is 0.

And the “Wheat plant response rating” value (wheat; [2])?
Its value is 0.

And the “Wheat plant response rating (0 to 10 scale)” value (wheat; Preemergence, Rate 125 g/ha)?
Its value is 0.

What about the “Wheat plant response rating” value (wheat; [3]) of the same compound?
The value was 0.

What about the “Wheat plant response rating” value (wheat; [4]) of the same compound?
Its value is 0.

What about the “Wheat plant response rating” value (wheat; [5]) of the same compound?
The value was 0.

What about the “Plant response rating, Wheat” value (wheat; [6]) of the same compound?
The value was 0.

And the “Rice plant response rating” value (rice; [7])?
The value was 0.

What about the “Rice plant response rating” value (rice; [8]) of the same compound?
The value was 0.

And the “Rice plant response rating” value (rice; [9])?
The value was 0.

And the “Rice plant response rating” value (rice; [10])?
The value was 0.

And the “Plant response rating, Cocklebur” value (cocklebur; [1])?
Its value is 0.

And the “Cocklebur plant response rating” value (cocklebur; [2])?
Its value is 0.

What about the “Cocklebur plant response rating (0 to 10 scale)” value (cocklebur; Preemergence, Rate 125 g/ha) of the same compound?
The value was 0.

And the “Cocklebur plant response rating” value (cocklebur; [3])?
Its value is 0.

And the “Cocklebur plant response rating” value (cocklebur; [4])?
The value was 0.

And the “Cocklebur plant response rating” value (cocklebur; [5])?
The value was 0.

And the “Plant response rating, Cocklebur” value (cocklebur; [6])?
Its value is 0.

What about the “Barnyardgrass plant response rating” value (bamyardgrass; [7]) of the same compound?
Its value is 0.

And the “Barnyardgrass plant response rating” value (bamyardgrass; [8])?
Its value is 0.

And the “Barnyardgrass plant response rating” value (bamyardgrass; [9])?
Its value is 0.

What about the “Barnyardgrass plant response rating” value (bamyardgrass; [10]) of the same compound?
Its value is 0.

What about the “Plant response rating, Blackgrass” value (blackgrass; [1]) of the same compound?
The value was 0.

What about the “Blackgrass plant response rating” value (blackgrass; [2]) of the same compound?
The value was 0.

What about the “Blackgrass plant response rating (0 to 10 scale)” value (blackgrass; Preemergence, Rate 125 g/ha) of the same compound?
Its value is 0.

And the “Blackgrass plant response rating” value (blackgrass; [3])?
Its value is 0.

What about the “Blackgrass plant response rating” value (blackgrass; [4]) of the same compound?
Its value is 0.

And the “Blackgrass plant response rating” value (blackgrass; [5])?
Its value is 0.

And the “Plant response rating, Blackgrass” value (blackgrass; [11])?
The value was 0.

And the “Plant response rating, Blackgrass” value (blackgrass; [6])?
The value was 0.
